Experimental data taken from patent US9096608B2, “Pharmaceutically active pyrazolo-triazine derivatives” (LEAD DISCOVERY CENTER GMBH, priority 2012, dated 2015).
Where two headings read alike, the source gives them in different places.

Assays:
Format in all cases: biochemical
CDK2/CycA = target: T1, CDK2/CycA (Homo sapiens, UniProt P24941); assay: CDK2 Enzymatic Activity Assay (Lance Kinase Activity Assay, FRET); details: for CDK2 IC50 range class: Table 5B, symbols per IC50 ranges of b615
T1 construct: purchased Proqinase
Procedure, shortened: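 Compounds serially diluted 1:3 over 8 steps, run with CDK2/CycA, ULight-MBP substrate and ATP in HEPES pH 7.5 buffer for 1 h at room temperature. LANCE TR-FRET detection with Eu-anti-phospho-MBP after EDTA stop; IC50 from sigmoidal dose-response curves.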

CDK9/Cyclin T1 = target: T2, CDK9/Cyclin T1 (Homo sapiens, UniProt P50750); assay: CDK9 Enzymatic Activity Assay (Lance Kinase Activity Assay, FRET); details: for CDK9: Selectivity of CDK7 inhibition over CDK9 inhibition [fold]: Table 5B, symbols per IC50 ranges of b615
T2 construct: purchased Invitrogen
T2 sequence (P50750 whole entry): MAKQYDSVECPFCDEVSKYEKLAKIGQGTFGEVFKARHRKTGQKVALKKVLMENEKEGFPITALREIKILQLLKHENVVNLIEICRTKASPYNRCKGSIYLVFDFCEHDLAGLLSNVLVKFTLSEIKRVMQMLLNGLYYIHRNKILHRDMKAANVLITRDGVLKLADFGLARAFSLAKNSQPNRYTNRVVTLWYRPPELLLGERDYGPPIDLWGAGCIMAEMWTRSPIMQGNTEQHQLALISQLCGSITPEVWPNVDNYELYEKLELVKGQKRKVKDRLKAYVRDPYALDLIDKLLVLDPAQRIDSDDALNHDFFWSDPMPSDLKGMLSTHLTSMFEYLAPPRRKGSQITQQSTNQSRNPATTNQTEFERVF
T2 sequence (O60563 whole entry partner): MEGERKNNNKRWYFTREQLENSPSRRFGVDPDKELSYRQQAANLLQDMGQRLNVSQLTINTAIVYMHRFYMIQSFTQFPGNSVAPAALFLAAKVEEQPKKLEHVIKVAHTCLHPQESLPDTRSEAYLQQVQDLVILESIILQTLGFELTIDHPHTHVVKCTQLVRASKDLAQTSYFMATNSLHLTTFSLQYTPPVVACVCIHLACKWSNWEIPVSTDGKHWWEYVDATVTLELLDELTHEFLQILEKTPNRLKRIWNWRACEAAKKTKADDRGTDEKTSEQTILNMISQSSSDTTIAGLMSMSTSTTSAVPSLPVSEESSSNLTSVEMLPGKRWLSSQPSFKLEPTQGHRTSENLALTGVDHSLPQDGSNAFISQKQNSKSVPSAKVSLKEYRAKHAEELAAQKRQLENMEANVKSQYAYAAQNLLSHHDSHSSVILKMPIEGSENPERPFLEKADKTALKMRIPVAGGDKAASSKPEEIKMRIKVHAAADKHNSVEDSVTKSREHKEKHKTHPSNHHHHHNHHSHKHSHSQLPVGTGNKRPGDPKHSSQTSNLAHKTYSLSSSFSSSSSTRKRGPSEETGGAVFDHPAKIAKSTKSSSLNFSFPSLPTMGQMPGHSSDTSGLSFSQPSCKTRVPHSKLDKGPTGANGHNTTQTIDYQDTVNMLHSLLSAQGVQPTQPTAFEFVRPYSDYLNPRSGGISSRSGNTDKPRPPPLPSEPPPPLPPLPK
Procedure, shortened: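 TR-FRET detection of ULight-MBP substrate phosphorylation by CDK9/cyclin T1 using a Eu-anti-phospho-MBP antibody, in 50 mM HEPES pH 7.5, 10 mM MgCl2, 1 mM EGTA, 2 mM DTT, 0.01% Tween-20. Kinase reaction 1 h at room temperature, then EDTA detection buffer for 1 h before reading.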

CDK7/CycH/Mat1 = target: T3, CDK7/CycH/Mat1 (Homo sapiens, UniProt P50613); assay: CDK7 Enzymatic Activity Assay (Lance Kinase Activity Assay, FRET)
T3 construct: purchased Carna
T3 sequence (P50613 whole entry): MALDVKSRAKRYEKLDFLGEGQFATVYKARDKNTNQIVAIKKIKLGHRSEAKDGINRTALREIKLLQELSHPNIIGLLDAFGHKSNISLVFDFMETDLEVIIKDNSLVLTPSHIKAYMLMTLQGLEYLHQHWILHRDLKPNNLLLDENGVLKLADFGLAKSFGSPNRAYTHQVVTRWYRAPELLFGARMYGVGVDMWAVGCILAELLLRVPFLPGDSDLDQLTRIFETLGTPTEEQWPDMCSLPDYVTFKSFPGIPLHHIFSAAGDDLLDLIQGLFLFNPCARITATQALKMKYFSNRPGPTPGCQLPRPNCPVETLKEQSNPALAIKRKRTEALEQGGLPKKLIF
T3 sequence (P51946 whole entry partner): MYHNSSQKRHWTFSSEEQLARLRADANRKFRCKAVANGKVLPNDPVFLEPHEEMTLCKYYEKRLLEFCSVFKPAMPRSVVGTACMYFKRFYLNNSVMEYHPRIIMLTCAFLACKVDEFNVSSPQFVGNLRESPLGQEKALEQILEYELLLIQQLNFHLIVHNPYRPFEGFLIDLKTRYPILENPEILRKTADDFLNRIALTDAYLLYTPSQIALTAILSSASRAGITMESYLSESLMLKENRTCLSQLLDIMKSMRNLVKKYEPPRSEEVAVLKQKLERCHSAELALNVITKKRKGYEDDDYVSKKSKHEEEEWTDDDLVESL
T3 sequence (P51948 whole entry partner): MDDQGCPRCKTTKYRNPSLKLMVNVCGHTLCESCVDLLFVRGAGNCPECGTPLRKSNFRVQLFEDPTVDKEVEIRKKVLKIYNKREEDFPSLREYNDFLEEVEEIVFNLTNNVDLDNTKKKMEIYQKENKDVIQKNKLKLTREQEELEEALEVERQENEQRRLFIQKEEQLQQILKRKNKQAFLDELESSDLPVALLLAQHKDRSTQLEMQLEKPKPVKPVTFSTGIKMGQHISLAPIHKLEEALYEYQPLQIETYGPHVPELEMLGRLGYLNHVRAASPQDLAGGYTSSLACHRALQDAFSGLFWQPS
Procedure, shortened: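 TR-FRET (LANCE) kinase assay with ULight-MBP peptide substrate and Eu-labelled anti-phospho antibody; compounds in 8-point 1:3 series in HEPES 50 mM pH 7.5, MgCl2 10 mM, EGTA 1 mM, DTT 2 mM, 0.01% Tween-20.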

[1] = Table 5A, 25 μM ATP final, read-out: CDK7: IC50 [mM] for CDK7 inhibition (the above defined ranges apply)

Row | Compound | Selectivity CDK7 over CDK2 [fold] (CDK2/CycA; Table 7, lower part) | IC50 (CDK2/CycA; Table 7, upper part) | CDK9: Selectivity of CDK7 inhibition over CDK9 inhibition [fold] (CDK9/Cyclin T1) | Selectivity CDK7 over CDK9 [fold] (CDK9/Cyclin T1; Table 7, lower part) | IC50 (CDK9/Cyclin T1; Table 7, upper part) | IC50 (CDK7/CycH/Mat1; [1]) | IC50 (CDK7/CycH/Mat1; Table 7, lower part, read-out: IC50 [nM] CDK7) | IC50 (CDK7/CycH/Mat1; Table 7, upper part, read-out: IC50 [nM] CDK7) | CDK2 IC50 range class (CDK2/CycA)
1 | CC(C)c1cnn2c(N[C@H](C)c3cccc(Cl)c3)nc(OC3CCN(C)CC3)nc12 [(VII-ad), (R)-N-(1-(3-chlorophenyl)ethyl)-8-isopropyl-2-((1-methylpiperidin-4-yl)oxy)pyrazolo[1,5-a][1,3,5]triazin-4-amine] | 968 fold | > 2500 nM | +++ (IC50>2500 nM) | 815 fold | > 2500 nM | < 10 nM | < 10 nM | < 10 nM | 
2 | CC(C)Oc1cccc([C@H](C)Nc2nc(O[C@@H]3CCCNC3)nc3c(C(C)C)cnn23)c1 [(VII-bc), N-((S)-1-(3-isopropoxy-phenyl)ethyl)-8-isopropyl-2-((R)-piperidin-3-yloxy)pyrazolo[1,5-a][1,3,5]triazin-4-amine] |  |  | +++ (IC50>2500 nM) |  |  | 10 to 30 nM |  |  | +++ (IC50>2500 nM)
3 | COc1cccc([C@H](C)Nc2nc(N3CCC4(CCN4)CC3)nc3c(C(C)C)cnn23)c1 [(VIII-aj), (S)-8-isopropyl-N-(1-(3-methoxyphenyl)ethyl)-2-(1,7-diazaspiro[3.5]nonan-7-yl)pyrazolo[1,5-a][1,3,5]triazin-4-amine] |  |  | +++ (IC50>2500 nM) |  |  | < 10 nM |  |  | +++ (IC50>2500 nM)
4 | COc1cccc([C@H](C)Nc2nc(N3CC(N4CCCC4=O)C3)nc3c(C(C)C)cnn23)c1 [(VIII-n), (S)-1-(1-(8-isopropyl-4-((1-(3-methoxyphenyl)ethyl)amino)pyrazolo[1,5-a][1,3,5]triazin-2-yl)azetidin-3-yl)pyrrolidin-2-one] |  |  | +++ (IC50>2500 nM) |  |  | > 100 nM |  |  | +++ (IC50>2500 nM)
5 | CC(C)c1cnn2c(NC(C)c3ccccc3N3CCC3)nc(O[C@@H]3CCCNC3)nc12 (stereo partly drawn) [(VII-by), N-(1-(2-(azetidin-1-yl)phenyl)ethyl)-8-isopropyl-2-((R)-piperidin-3-yloxy)pyrazolo[1,5-a][1,3,5]triazin-4-amine] |  |  | +++ (IC50>2500 nM) |  |  | < 10 nM |  |  | +++ (IC50>2500 nM)
6 | COc1cccc([C@H](C)Nc2nc(NCCN3CCCC3)nc3c(C(C)C)cnn23)c1 [(VIII-l), (S)-8-isopropyl-N4-(1-(3-methoxyphenyl)ethyl)-N2-(2-(pyrrolidin-1-yl)ethyl)pyrazolo[1,5-a][1,3,5]triazine-2,4-diamine] |  |  | +++ (IC50>2500 nM) |  |  | > 100 nM |  |  | +++ (IC50>2500 nM)
7 | COc1cccc([C@H](C)Nc2nc(N3CCCC34CCNCC4)nc3c(C(C)C)cnn23)c1 [(VIII-ak), (S)-8-isopropyl-N-(1-(3-methoxyphenyl)ethyl)-2-(1,8-diazaspiro[4.5]decan-1-yl)pyrazolo[1,5-a][1,3,5]triazin-4-amine] |  |  | +++ (IC50>2500 nM) |  |  | 10 to 30 nM |  |  | +++ (IC50>2500 nM)
8 | COc1ccc(OC)c([C@H](C)Nc2nc(O[C@@H]3CCCNC3)nc3c(C(C)C)cnn23)c1 [(VII-bd), N-((S)-1-(2,5-dimethoxy-phenyl)ethyl)-8-isopropyl-2-((R)-piperidin-3-yloxy)pyrazolo[1,5-a][1,3,5]triazin-4-amine] |  |  | +++ (IC50>2500 nM) |  |  | > 100 nM |  |  | +++ (IC50>2500 nM)
9 | CC(C)c1cnn2c(NC(C)c3ccc4[nH]ncc4c3)nc(O[C@@H]3CCCNC3)nc12 (stereo partly drawn) [(VII-ca), N-(1-(1H-indazol-5-yl)ethyl)-8-isopropyl-2-((R)-piperidin-3-yloxy)pyrazolo[1,5-a][1,3,5]triazin-4-amine] |  |  | +++ (IC50>2500 nM) |  |  | < 10 nM |  |  | +++ (IC50>2500 nM)
10 | COc1cccc([C@H](C)Nc2nc(CNCCCN3CCOCC3)nc3c(C(C)C)cnn23)c1 [(XXIX-5), (S)-8-isopropyl-N-(1-(3-methoxyphenyl)ethyl)-2-(((3-morpholinopropyl)amino)methyl)pyrazolo[1,5-a][1,3,5]triazin-4-amine] |  |  | +++ (IC50>2500 nM) |  |  | > 100 nM |  |  | +++ (IC50>2500 nM)
11 | COc1cc(F)ccc1[C@H](C)Nc1nc(O[C@@H]2CCCNC2)nc2c(C(C)C)cnn12 [(VII-az), N-((S)-1-(4-fluoro-2-methoxyphenyl)ethyl)-8-isopropyl-2-((R)-piperidin-3-yloxy)pyrazolo[1,5-a][1,3,5]triazin-4-amine] |  |  | +++ (IC50>2500 nM) |  |  | 30 to 100 nM |  |  | +++ (IC50>2500 nM)
12 | COc1cccc([C@H](C)Nc2nc(CN3CC(N4CCC(F)(F)C4)C3)nc3c(C(C)C)cnn23)c1 [(XXIX-9), (S)-2-((3-(3,3-difluoropyrrolidin-1-yl)azetidin-1-yl)methyl)-8-isopropyl-N-(1-(3-methoxyphenyl)ethyl)pyrazolo[1,5-a][1,3,5]triazin-4-amine] |  |  | +++ (IC50>2500 nM) |  |  | > 100 nM |  |  | +++ (IC50>2500 nM)
13 | COc1cccc([C@H](C)Nc2nc(N(C)CCCN3CCCCC3)nc3c(C(C)C)cnn23)c1 [(VIII-X), (S)-8-isopropyl-N4-(1-(3-methoxyphenyl)ethyl)-N2-methyl-N2-(3-(piperidin-1-yl)propyl)pyrazolo(1,5-a][1,3,5]triazine-2,4-diamine] |  |  | +++ (IC50>2500 nM) |  |  | > 100 nM |  |  | +++ (IC50>2500 nM)
14 | CC(C)COc1cccc([C@H](C)Nc2nc(O[C@@H]3CCCNC3)nc3c(C(C)C)cnn23)c1 [(VII-bb), N-((S)-1-(3-isobutoxyphenyl)ethyl)-8-isopropyl-2-((R)-piperidin-3-yloxy)pyrazolo[1,5-a][1,3,5]triazin-4-amine] |  |  | +++ (IC50>2500 nM) |  |  | 30 to 100 nM |  |  | +++ (IC50>2500 nM)
15 | CC(C)c1cnn2c(N[C@@H](C)c3ccccc3)nc(OC3CCC(N)CC3)nc12 (stereo partly drawn) [(VII-k), (S)-2-((4-aminocyclohexyl)oxy)-8-isopropyl-N-(1-phenylethyl)pyrazolo[1,5-a][1,3,5]triazin-4-amine] |  |  | +++ (IC50>2500 nM) |  |  | < 10 nM |  |  | +++ (IC50>2500 nM)

More lines, now with the values ahead:

Row | Selectivity CDK7 over CDK2 [fold] (CDK2/CycA; Table 7, lower part) | IC50 (CDK2/CycA; Table 7, upper part) | CDK9: Selectivity of CDK7 inhibition over CDK9 inhibition [fold] (CDK9/Cyclin T1) | Selectivity CDK7 over CDK9 [fold] (CDK9/Cyclin T1; Table 7, lower part) | IC50 (CDK9/Cyclin T1; Table 7, upper part) | IC50 (CDK7/CycH/Mat1; [1]) | IC50 (CDK7/CycH/Mat1; Table 7, lower part, read-out: IC50 [nM] CDK7) | IC50 (CDK7/CycH/Mat1; Table 7, upper part, read-out: IC50 [nM] CDK7) | CDK2 IC50 range class (CDK2/CycA) | Compound
16 |  |  | +++ (IC50>2500 nM) |  |  | > 100 nM |  |  | +++ (IC50>2500 nM) | COc1cccc([C@H](C)Nc2nc(NCCN)nc3c(C(C)C)cnn23)c1 [(VIII-V), (S)-N2-(2-aminoethyl)-8-isopropyl-N4-(1-(3-methoxyphenyl)ethyl)pyrazolo[1,5-a][1,3,5]triazine-2,4-diamine]
17 |  |  | +++ (IC50>2500 nM) |  |  | < 10 nM |  |  | +++ (IC50>2500 nM) | COc1cccc([C@H](C)Nc2nc(N3CC4(CCNC4)C3)nc3c(C(C)C)cnn23)c1 [(VIII-ae), (S)-8-isopropyl-N-(1-(3-methoxyphenyl)ethyl)-2-(2,6-diazaspiro[3.4]octan-2-yl)pyrazolo[1,5-a][1,3,5]triazin-4-amine]
18 |  |  | +++ (IC50>2500 nM) |  |  | 30 to 100 nM |  |  | +++ (IC50>2500 nM) | COc1cccc([C@H](C)Nc2nc(NCC3CCNC3)nc3c(C(C)C)cnn23)c1 (stereo partly drawn) [(VIII-w), 8-isopropyl-N4-((S)-1-(3-methoxyphenyl)ethyl)-N2-(pyrrolidin-3-ylmethyl)pyrazolo[1,5-a][1,3,5]triazine-2,4-diamine]
19 |  |  | +++ (IC50>2500 nM) |  |  | < 10 nM |  |  | +++ (IC50>2500 nM) | CC(C)c1cnn2c(N[C@@H](C)c3ccccc3O)nc(O[C@@H]3CCCNC3)nc12 [(VII-ba), 2-((S)-1-((8-isopropyl-2-((R)-piperidin-3-yloxy)pyrazolo[1,5-a][1,3,5]triazin-4-yl)amino)ethyl)phenol]
20 |  |  | +++ (IC50>2500 nM) |  |  | 10 to 30 nM |  |  | +++ (IC50>2500 nM) | COc1cccc([C@H](C)Nc2nc(N3CCC4(CCNC4)C3)nc3c(C(C)C)cnn23)c1 (stereo partly drawn) [(VIII-af), 8-isopropyl-N-((S)-1-(3-methoxyphenyl)ethyl)-2-(2,7-diazaspiro[4.4]nonan-2-yl)pyrazolo[1,5-a][1,3,5]triazin-4-amine]
21 |  |  | +++ (IC50>2500 nM) |  |  | < 10 nM |  |  | +++ (IC50>2500 nM) | COc1cccc([C@H](C)Nc2nc(O[C@@H]3CCCNC3)nc3c(C(C)C)cnn23)c1 [(VII-r), 8-isopropyl-N-((S)-1-(3-methoxyphenyl)ethyl)-2-((R)-piperidin-3-yloxy)pyrazolo[1,5-a][1,3,5]triazin-4-amine]
22 |  |  | +++ (IC50>2500 nM) |  |  | > 100 nM |  |  | +++ (IC50>2500 nM) | COc1cccc([C@H](C)Nc2nc(SC3CCNCC3)nc3c(C(C)C)cnn23)c1 [(X-e), (S)-8-isopropyl-N-(1-(3-methoxyphenyl)ethyl)-2-(piperidin-4-ylthio)pyrazolo[1,5-a][1,3,5]triazin-4-amine]
